Assay results taken from publication PMC1851987, “Identification of the Endogenous Key Substrates of the Human Organic Cation Transporter OCT2 and Their Implication in Function of Dopaminergic Neurons” (PLoS ONE, 2007).
Where a chain is given by its changes, count along the chain named. Numbers in names are those of the source. Marks after values point to notes of the source that are not given here.

Legend:
HTZ-146 cells [1] = assay: MTT reduction cell viability assay, HTZ-146 cells; type: cell-based, human
Procedure: (§1) Cell viability was assessed in HEK-293 cells, human dopaminergic neuroblastoma cells (SH-SY5Y) and human glioblastoma cells (HTZ-146) by the MTT test as described.[22] […] For indication of metabolic activity, cells were treated with MTT reagent (15 µl of 1 mg/ml stock solution per well) for 1 h, and after drying of culture plates for 1 h at 37°C, the resulting formazan dye was extracted with isopropanol/HCl (100 µl 0.04 mol/l per well) and absorbance was determined spectrophotometrically at 568 nm. Results were in agreement with the data obtained by the tryptan blue exclusion method (data not shown).

SH-SY5Y cells [2] = assay: MTT reduction cell viability assay, SH-SY5Y cells; type: cell-based, human
Procedure: as §1

SH-SY5Y cells [3] = assay: Uptake of cyclo(his-pro) and salsolinol into SH-SY5Y cells with transport inhibitors; type: cell-based, human; conditions: substrates 10 µmol/l, 5 min; inhibitors 10 µmol/l (decynium-22 1 µmol/l)
Procedure: (§2) (D) Relative quantitative real-time expression of OCT2 mRNA in distinct areas of normal human brain and neuroepithelial tumors (TaqMan Assay) normalized to GAPDH.
(§3) For uptake experiments, cells were grown on polystyrene dishes of 60 mm diameter to at least 80% confluence. Prior to addition of test compounds, culture medium was replaced by 3 ml HEPES-modified Krebs buffer (140.0 mmol/l NaCl, 5.0 mmol/l KCl, 2.0 mmol/l CaCl2, 1.0 mmol/l MgCl2, 10.0 mmol/l HEPES, and 5.0 mmol/l D-glucose, adjusted to pH 7.40), and cells were left to equilibrate for 60 min at 37°C. Uptake was terminated after indicated times by washing cells with ice-cold buffer. Cells were lysed with 1 ml of 4 mmol/l perchloric acid and lysates subjected to LC-MS-MS quantification. Cellular protein content was determined after solubilization of perchloric acid precipitates with 1 ml of […] NaOH using the bicinchoninic assay (BCA Protein Assay Kit, Pierce).
(§4) Chromatographic separations were performed on Hypercarb (5 µm, 50×2.1 mm; Thermo Electron), Aquasil C18 (3 µm, 100×4.6 mm; Thermo Electron), or Hilic columns (5 µm, 100×3.0 mm; Waters Atlantis) by isocratic or gradient elution using 0.1% aqueous formic acid (A) and acetonitrile or methanol (B) as solvent system. For quantification, SRM transitions of a precursor ion [M+H]^+ into a specific fragment ion (peak area ratios relative to IS) were recorded in positive ESI mode at 1.0–1.5 mTorr collision pressure and 10–40 eV collision energy. External calibration curves were obtained from serial dilutions of the analyte in 4 mmol/l HClO4 by linear or logistic regression. Detection limit was at least 0.001 nmol/mg protein.

HTZ-146 cells [4] = assay: Uptake of cyclo(his-pro) and salsolinol into HTZ-146 cells with transport inhibitors; type: cell-based, human; conditions: substrates 10 µmol/l, 5 min; inhibitors 10 µmol/l (decynium-22 1 µmol/l)
Procedure: as §2, §3, §4

[5] = system: OCT2-transfected HEK-293 cells; assay: Intracellular metabolite N-methyl-salsolinol after salsolinol incubation, OCT2-transfected HEK-293 cells; type: in vitro ADME, human; conditions: mean±s.e.m., n = 3
HTZ-146 cells [6] = assay: Intracellular metabolite N-methyl-salsolinol after salsolinol incubation, HTZ-146 cells; type: in vitro ADME, human; conditions: mean±s.e.m., n = 3
Excerpt: (§5) Beyond its physiological neuromodulatory function, there is considerable interest in the pathophysiologic role of salsolinol. […] It has been hypothesized that especially N-methyl-salsolinol is etiologically involved in apoptotic nigral cell death in PD by promoting calcium-triggered disruption of mitochondrial permeability transition.[14]

SH-SY5Y cells [7] = assay: Intracellular metabolite N-methyl-salsolinol after salsolinol incubation, SH-SY5Y cells; type: in vitro ADME, human; conditions: mean±s.e.m., n = 3
Excerpt: as §5

[8] = biological target: T1, organic cation transporter OCT2 (wild-type 400R) (Homo sapiens, UniProt O15244, S270A); assay: Specific uptake into OCT2 (wild-type) transfected HEK-293 cells vs empty vector, LC-MS-MS; conditions: 5 min of incubation with 10 µmol/l
T1 sequence (O15244 1-555 S270A): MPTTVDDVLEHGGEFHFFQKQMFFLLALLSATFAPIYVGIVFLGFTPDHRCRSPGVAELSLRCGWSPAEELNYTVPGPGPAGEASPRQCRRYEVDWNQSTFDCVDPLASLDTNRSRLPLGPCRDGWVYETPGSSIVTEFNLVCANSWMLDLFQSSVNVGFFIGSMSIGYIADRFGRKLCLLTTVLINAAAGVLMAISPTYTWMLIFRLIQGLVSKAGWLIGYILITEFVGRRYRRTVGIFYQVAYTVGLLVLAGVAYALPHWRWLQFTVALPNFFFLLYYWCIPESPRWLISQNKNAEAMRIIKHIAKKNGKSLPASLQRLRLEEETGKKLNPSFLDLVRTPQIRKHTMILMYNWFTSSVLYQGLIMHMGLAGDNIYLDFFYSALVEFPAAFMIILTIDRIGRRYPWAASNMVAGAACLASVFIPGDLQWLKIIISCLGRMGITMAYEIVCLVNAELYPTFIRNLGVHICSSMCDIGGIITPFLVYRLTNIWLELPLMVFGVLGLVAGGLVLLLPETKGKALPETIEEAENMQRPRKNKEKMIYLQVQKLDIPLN

[9] = biological target: T2, norepinephrine transporter (NET) (Homo sapiens, UniProt P23975); assay: Specific uptake into norepinephrine transporter (NET) transfected HEK-293 cells; type: cell-based; conditions: 10 µmol/l, 5 min incubation
T2 construct: expressed in transfected cells; host or cells: HEK-293, stably transfected; cDNA from C; Pifl (University of Vienna)
Excerpt: Pifl (University of Vienna).
1. Burnette WB, Bailey MD, Kukoyi S, Blakely RD, Trowbridge CG, et al. (1996) Human norepinephrine transporter kinetics using rotating disk electrode voltammetry. Anal Chem 68: 2932–2938. (0.90 MB TIF) Click here for additional data file.

[10] = substrate: O=C1NC(Cc2c[nH]cn2)C(=O)N2CCCC12; assay: cells, lysate or membranes; conditions: mean (s.e.m.), pH 7.4, 37.0 °C
[11] = substrate: O=C1NC(Cc2c[nH]cn2)C(=O)N2CCCC12; assay: Specific uptake into OCT1-transfected HEK-293 cells; type: cell-based, human; conditions: other: specific uptake, 1 min of loading, mean (s.e.m.); pH 7.4; 37.0 °C
[12] = 48 h incubation with 10 µmol/l salsolinol
[13] = 48 h incubation with 100 µmol/l salsolinol
[14] = 48 h, non-pretreated, read-out: EC50 (95% confidence interval), cell viability
[15] = other: specific uptake, 1 min of loading, n = 3

T2 sequence (P23975 whole entry): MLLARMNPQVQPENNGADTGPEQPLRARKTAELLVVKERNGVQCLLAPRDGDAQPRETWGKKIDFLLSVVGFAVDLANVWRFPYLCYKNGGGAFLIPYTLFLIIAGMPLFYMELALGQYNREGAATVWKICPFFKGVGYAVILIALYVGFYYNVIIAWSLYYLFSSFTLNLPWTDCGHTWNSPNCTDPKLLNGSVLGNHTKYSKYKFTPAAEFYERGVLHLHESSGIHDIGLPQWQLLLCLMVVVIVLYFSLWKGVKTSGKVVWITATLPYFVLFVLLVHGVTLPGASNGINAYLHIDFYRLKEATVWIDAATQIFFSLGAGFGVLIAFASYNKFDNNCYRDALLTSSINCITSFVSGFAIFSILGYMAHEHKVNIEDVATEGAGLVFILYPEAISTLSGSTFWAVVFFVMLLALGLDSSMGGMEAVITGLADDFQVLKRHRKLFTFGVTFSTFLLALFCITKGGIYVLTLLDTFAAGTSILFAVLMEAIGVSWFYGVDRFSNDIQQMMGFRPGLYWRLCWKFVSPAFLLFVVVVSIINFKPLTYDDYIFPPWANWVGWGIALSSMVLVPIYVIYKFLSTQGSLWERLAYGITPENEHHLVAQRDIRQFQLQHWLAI

Molecule: C[C@]12N[C@H](Cc3ccccc31)c1ccccc12 [(+)-MK-801, reference compound]
- effect on cell death caused by glutamate as well as salsolinol (HTZ-146 cells [1]; (+)-MK-801 10 µmol/l present): attenuated
- effect on cell death caused by glutamate as well as salsolinol (SH-SY5Y cells [2]; (+)-MK-801 10 µmol/l present): attenuated

Molecule: Fc1ccc(C(OCCN2CCN(CCCc3ccccc3)CC2)c2ccc(F)cc2)cc1 [GBR12909]
- effect of coincubated inhibitor on uptake of cyclo(his-pro) and salsolinol (SH-SY5Y cells [3]): not different from control conditions
- effect of coincubated inhibitor on uptake of cyclo(his-pro) and salsolinol (HTZ-146 cells [4]): not different from control conditions

Molecule: CC1c2cc(O)c(O)cc2CCN1C (centres unmarked) [N-methyl-salsolinol]
- intracellular concentration of the metabolite N-methyl-salsolinol [5, 12]: 0.89±0.06 nmol/mg protein
- intracellular concentration of the metabolite N-methyl-salsolinol [5, 13]: 7.56±0.41 nmol/mg protein
- intracellular concentration of the metabolite N-methyl-salsolinol (HTZ-146 cells [6]; [12]): 0.17±0.01 nmol/mg protein
- intracellular concentration of the metabolite N-methyl-salsolinol (HTZ-146 cells [6]; [13]): 1.16±0.06 nmol/mg protein
- intracellular concentration of the metabolite N-methyl-salsolinol (SH-SY5Y cells [7]; [12]): 0.18±0.01 nmol/mg protein
- intracellular concentration of the metabolite N-methyl-salsolinol (SH-SY5Y cells [7]; [13]): 1.28±0.11 nmol/mg protein
- uptake rate relative to salsolinol [8]: about two-thirds

Molecule: CCN1/C(=C/c2ccc3ccccc3[n+]2CC)C=Cc2ccccc21.[I-] [decynium-22]
- effect of coincubated inhibitor on uptake of cyclo(his-pro) and salsolinol (SH-SY5Y cells [3]): almost abolished
- effect of coincubated inhibitor on uptake of cyclo(his-pro) and salsolinol (HTZ-146 cells [4]): almost abolished

Molecule: CNCCCN1c2ccccc2CCc2ccccc21 [desipramine]
- effect of coincubated inhibitor on uptake of cyclo(his-pro) and salsolinol (SH-SY5Y cells [3]): not different from control conditions
- effect of coincubated inhibitor on uptake of cyclo(his-pro) and salsolinol (HTZ-146 cells [4]): not different from control conditions

Molecule: N[C@@H](CCC(=O)O)C(=O)O [glutamate, reference compound]
- EC50 (HTZ-146 cells [1]; [14]): 585 µM
- EC50 (SH-SY5Y cells [2]; [14]): 389 µM

Molecule: CC(COc1ccccc1)N(CCCl)Cc1ccccc1 (centres unmarked) [phenoxybenzamine]
- effect of coincubated inhibitor on uptake of cyclo(his-pro) and salsolinol (SH-SY5Y cells [3]): almost abolished
- effect of coincubated inhibitor on uptake of cyclo(his-pro) and salsolinol (HTZ-146 cells [4]): almost abolished

Molecule: NCCc1ccc(O)cc1 [tyramine, reference compound]
- substrate of NET (specific uptake) [9]: excellent NET substrate

B1: organic cation transporter OCT2 (wild-type 400R) (Homo sapiens; S270A) (protein)
chain: T1 sequence (O15244 1-555 S270A)
- Km [10, 15]: 74 (12) µmol/l
- Vmax [10, 15]: 0.003 µmol/min/mg
- Vmax/Km [10, 15]: 41 µl/mg protein/min

B2: OCT2 variant R400C (Homo sapiens; R400C/S270A) (protein)
chain: T1 sequence (O15244 1-555 S270A) with R400C
- Km ([10]; other: 1 min of loading): 51 (6)^# µmol/l
- Vmax ([10]; other: 1 min of loading): 0.001 µmol/min/mg

B3: OCT2 variant K432Q (Homo sapiens; K432Q/S270A) (protein)
chain: T1 sequence (O15244 1-555 S270A) with K432Q
- Km ([10]; other: 1 min of loading): 78 (12) µmol/l
- Vmax ([10]; other: 1 min of loading): 0.0031 µmol/min/mg

B4: OCT2 variant A270S (Homo sapiens) (protein)
chain: T1 sequence (O15244 1-555 S270A) with A270S
- Km ([10]; other: 1 min of loading): 75 (11) µmol/l
- Vmax ([10]; other: 1 min of loading): 0.0032 µmol/min/mg

B5: OCT2 variant M165I (Homo sapiens; M165I/S270A) (protein)
chain: T1 sequence (O15244 1-555 S270A) with M165I
- Km ([10]; other: 1 min of loading): 78 (15) µmol/l
- Vmax ([10]; other: 1 min of loading): 0.0029 µmol/min/mg

B6: OCT1 (Homo sapiens) (protein)
chain: MPTVDDILEQVGESGWFQKQAFLILCLLSAAFAPICVGIVFLGFTPDHHCQSPGVAELSQRCGWSPAEELNYTVPGLGPAGEAFLGQCRRYEVDWNQSALSCVDPLASLATNRSHLPLGPCQDGWVYDTPGSSIVTEFNLVCADSWKLDLFQSCLNAGFLFGSLGVGYFADRFGRKLCLLGTVLVNAVSGVLMAFSPNYMSMLLFRLLQGLVSKGNWMAGYTLITEFVGSGSRRTVAIMYQMAFTVGLVALTGLAYALPHWRWLQLAVSLPTFLFLLYYWCVPESPRWLLSQKRNTEAIKIMDHIAQKNGKLPPADLKMLSLEEDVTEKLSPSFADLFRTPRLRKRTFILMYLWFTDSVLYQGLILHMGATSGNLYLDFLYSALVEIPGAFIALITIDRVGRIYPMAMSNLLAGAACLVMIFISPDLHWLNIIIMCVGRMGITIAIQMICLVNAELYPTFVRNLGVMVCSSLCDIGGIITPFIVFRLREVWQALPLILFAVLGLLAAGVTLLLPETKGVALPETMKDAENLGRKAKPKENTIYLKVQTSEPSGT
notes: The cDNAs encoding the organic cation transporters; expressed in transfected cells; host or cells: HEK-293, stably transfected, pcDNA3
- Km [11]: 655 (191) μmol/l
